The target in assay [1] is human CatL (cathepsin-L, CTSL) (Homo sapiens, UniProt P07711). As to the kind of experiment: FRET peptide cleavage HTS. It counts as biochemical. The following applies: read-out: % inhibition at 20 uM.
The target in another assay is 3CL-Pro (Severe acute respiratory syndrome coronavirus 2, UniProt P0DTD1). As to the kind of experiment: biochemical.

Where a SMILES comes first, the peptide text is derived from it. The star is where a group is joined. Cbz = O=C(OCc1ccccc1)*

Chain of human CatL (cathepsin-L, CTSL) (P07711 114-288): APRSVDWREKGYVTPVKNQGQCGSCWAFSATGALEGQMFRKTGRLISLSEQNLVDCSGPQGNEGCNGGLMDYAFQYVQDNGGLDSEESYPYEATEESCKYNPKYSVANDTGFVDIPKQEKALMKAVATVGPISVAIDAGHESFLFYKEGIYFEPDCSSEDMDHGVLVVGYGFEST
Chain of human CatL (cathepsin-L, CTSL) (P07711 292-333): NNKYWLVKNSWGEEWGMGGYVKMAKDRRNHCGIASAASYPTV

The inhibition is the percentage by which the read-out fell short of the control. With `CC(C)C[C@H](NC(=O)OCc1ccccc1)C(=O)N[C@@H](C[C@@H]1CCNC1=O)C(O)S(=O)(=O)O` (stereo partly drawn) [GC-376], in assay [1], the inhibition at 20 µM was greater than 50%.

Consider `CC(C)C[C@@H](C=O)NC(=O)[C@H](CC(C)C)NC(=O)[C@H](CC(C)C)NC(=O)OCc1ccccc1` [MG-132] (Cbz-Leu-Leu-Leu-aldehyde), for which the inhibition at 20 µM in assay [1] is greater than 50%. Usually IC50 stands for the midpoint of a concentration-inhibition curve. Low readings indicate greater potency, high ones weaker potency. At 3CL-Pro, `C[C@H](NC(=O)[C@H](Cc1ccccc1)NC(=O)OCc1ccccc1)C(=O)CF` [Z-FA-FMK] gave an IC50 of 9.67 µM. Also, in assay [1], the inhibition at 20 µM is greater than 50%. Consider `CCCN1CCN(c2ccc(C(=O)NC3(C(=O)NCC#N)CCCCC3)cc2)CC1` [balicatib], for which the inhibition at 20 µM in assay [1] was greater than 50%. In the case of `CC(=O)N[C@@H](CC(C)C)C(=O)N[C@@H](CC(C)C)C(=O)N[C@H](C=O)CCCNC(=N)N` [leupeptin hemisulfate], the inhibition at 20 µM in assay [1] was greater than 50%.

These data come from publication doi:10.1101/2022.02.09.479835v1 (biorxiv, 2022).
